In patent US6346529B1, “Antiviral therapy using thiazine dyes” (Oklahoma Medical Research Foundation, priority 1988, dated 2002):

Columns and labels:
[1] = test system: nucleosides of adenine, cytosine, thymine, and guanine; experiment: Methylene blue plus light treatment of nucleosides (HPLC); format: biochemical; conditions: methylene blue plus light 15 min
Protocol: The nucleosides of adenine, cytosine, thymine, and guanine (approximately 200 nmoles each) were also subjected to methylene blue (20 μl into 2.0 mls final total volume) plus light treatment (100 watt incandescent light 11 cm over solution for 15 min).

RNA virus R17 [2] = experiment: Inactivation of RNA virus R17, plaque titer on E. coli lawn; format: cell-based, R17 phage; conditions: for PFU: MB 0.05 uM
Protocol: Add 20 μl φ (R17 phage) stock to 2.0 ml dilution buffer and dispense 0.3 ml into each of tubes A-F. Next add methylene blue to give concentrations shown in Table 2 below. Pipet 270 μl of samples to be light treated into the #1 wells of a 96 well microtiter plate, corresponding to its letter label A-H. The samples in the microtiter plate were exposed to light through water (¼ cm) deep in a petri dish for 5 minutes. 270 μl of each sample not to be light treated was then added to wells in the plate.
R17 virus samples were also tested to determine the time of exposure of light required to inactivate the virus. […] The length of exposure was varied as follows:
Add 0.3 ml to well H2, treat with light 0-5 min. Add 0.3 ml to well G2, treat with light 5 min-7.5 min. Add 0.3 ml to well F2, treat with light 7.5 min-9.0 min. Add 0.3 ml to well E2, treat with light 9.0 min-9.5 min. Add 0.3 ml to well D2, treat with light 9.5 min-9.9 min. Add 0.3 ml to well C2, treat with light 9.9 min-10.0 min. Add 0.3 ml to well B, no light. Add 0.3 ml to well A, no light.

[3] = target: T1, HIV-1 reverse transcriptase (RT) (Human immunodeficiency virus type 1 group M subtype B, UniProt P03367); experiment: HIV-1 reverse transcriptase enzyme assay; format: biochemical
T1 construct: HIV reverse transcriptase (RT); endogenous in cells; host or cells: HIV-1-infected PHA-stimulated human PBM cells
Description: (§1) Enzyme Assays: The preparation of the enzyme and the assay conditions used, were recently described by Schinazi, et al., Antimicrob. Agents Chemother. 33, 115-117 (1989). HIV-1 RT and cellular DNA polymerase alpha were isolated from infected and uninfected PHA-stimulated human PBM cells according to traditional methods (Eriksson, B., et al., Antimicrob. Agents Chemother. 31, 600-604, (1987); Furman, et al., Proc. Natl. Acad. Sci. USA 83, 8333-8337, (1986); Abrell, et al., J. Virol. 12, 431-439, (1973).
(§2) Assays. Reaction mixtures (100 μl) contained:
(§3) The reactions were started by the addition of 10 μl of purified enzyme, incubated at 37° C. for the indicated periods of time and processed as described in Eriksson, et al., Antimicrob. Agents Chemother. 31, 600-604 (1987).
(§4) Median-Effect Method: EC50 and IC50 values were obtained by analysis of the data using the median-effect equation (Chou, T., et al., “Quantitative Analysis of Dose-Effect Relationships: The Combined Effects of Multiple Drugs or Enzyme Inhibitors,” Adv. Enz. Regul. 22, 27-55 (1984).
(§5) The effect of methylene blue on two DNA polymerizing enzymes, HIV reverse transcriptase (RT) and calf thymus DNA polymerase alpha (CT α pol), was also studied.

[4] = target: T2, calf thymus DNA polymerase alpha (CT α pol) (Bos taurus, UniProt A0AAA9TD94); experiment: DNA polymerase alpha enzyme assay; format: biochemical
T2 construct: calf thymus DNA polymerase alpha (CT α pol); from tissue; host or cells: calf thymus
T2 sequence (A0AAA9TD94 entry or part of it): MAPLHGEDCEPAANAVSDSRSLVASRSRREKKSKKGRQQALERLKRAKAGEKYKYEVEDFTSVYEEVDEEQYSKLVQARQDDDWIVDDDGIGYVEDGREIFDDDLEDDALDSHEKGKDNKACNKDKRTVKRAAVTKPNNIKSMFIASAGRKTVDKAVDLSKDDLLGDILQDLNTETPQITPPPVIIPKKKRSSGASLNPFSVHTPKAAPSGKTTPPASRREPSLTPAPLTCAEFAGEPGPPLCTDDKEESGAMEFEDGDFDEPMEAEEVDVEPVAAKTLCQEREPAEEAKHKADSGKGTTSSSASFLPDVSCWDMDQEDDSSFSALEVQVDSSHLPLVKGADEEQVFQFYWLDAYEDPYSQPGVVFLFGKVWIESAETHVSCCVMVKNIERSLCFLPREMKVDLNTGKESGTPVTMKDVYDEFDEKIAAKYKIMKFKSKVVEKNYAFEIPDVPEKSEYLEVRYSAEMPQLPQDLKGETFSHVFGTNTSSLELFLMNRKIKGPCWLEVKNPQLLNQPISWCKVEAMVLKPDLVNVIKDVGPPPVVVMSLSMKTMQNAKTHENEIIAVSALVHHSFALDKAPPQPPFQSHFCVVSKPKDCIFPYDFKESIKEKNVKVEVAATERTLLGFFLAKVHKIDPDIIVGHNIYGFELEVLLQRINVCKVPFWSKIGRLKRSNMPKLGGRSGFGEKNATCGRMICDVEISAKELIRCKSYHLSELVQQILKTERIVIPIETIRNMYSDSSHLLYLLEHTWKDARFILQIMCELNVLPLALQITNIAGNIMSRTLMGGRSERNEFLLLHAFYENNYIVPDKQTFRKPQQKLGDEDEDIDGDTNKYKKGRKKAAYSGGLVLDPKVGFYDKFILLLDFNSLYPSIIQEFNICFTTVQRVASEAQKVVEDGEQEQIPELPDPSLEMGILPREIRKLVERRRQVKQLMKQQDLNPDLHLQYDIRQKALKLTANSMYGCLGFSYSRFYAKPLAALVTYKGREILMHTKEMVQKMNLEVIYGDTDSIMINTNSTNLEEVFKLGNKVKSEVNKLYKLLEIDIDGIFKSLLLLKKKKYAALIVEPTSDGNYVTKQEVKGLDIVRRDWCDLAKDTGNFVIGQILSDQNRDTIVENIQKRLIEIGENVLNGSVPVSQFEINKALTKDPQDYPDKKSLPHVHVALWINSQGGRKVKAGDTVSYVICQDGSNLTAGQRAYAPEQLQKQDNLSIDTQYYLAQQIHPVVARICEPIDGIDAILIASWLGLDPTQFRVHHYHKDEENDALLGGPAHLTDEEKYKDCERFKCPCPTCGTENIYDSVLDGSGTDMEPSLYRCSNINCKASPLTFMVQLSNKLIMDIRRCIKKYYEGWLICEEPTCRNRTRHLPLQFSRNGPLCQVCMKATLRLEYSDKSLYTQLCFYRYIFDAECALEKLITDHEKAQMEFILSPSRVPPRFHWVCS
Description: as §1, §2, §3, §4, §5

RNA virus R17 [5] = experiment: Inactivation of RNA virus R17, plaque titer on E. coli lawn; format: cell-based, R17 phage
[6] = Ziv and Heavner 1984; cited from earlier work
[7] = cited from earlier work
[8] = sheep, cited from earlier work
[9] = PBM cell proliferation (cytotoxicity) assay; format: cell-based; conditions: human
Protocol: (§6) PBM and CEM Cells Proliferation Assay: The drugs were evaluated for their potential toxic effects on uninfected PHA-stimulated human PBM cells and also in CEM cells. The cells were cultured with and without drug for 6 days at which time aliquots were counted for cell viability as described above. Median-Effect Method: EC50 and IC50 values were obtained by analysis of the data using the median-effect equation (Chou, T., et al., “Quantitative Analysis of Dose-Effect Relationships: The Combined Effects of Multiple Drugs or Enzyme Inhibitors,” Adv. Enz. Regul. 22, 27-55 (1984).

Toxicity in Vero cells = format: cell-based; conditions: African green monkey
Protocol: The cells dislodged from the flask were generally in clumps and were dispersed by repeated forceful pipetting of the suspension against the surface of the flask. To 1 ml of the well-dispersed cell suspension, 0.2 ml of trypan blue solution was added, and the number of cells were counted using a hemacytomer. Each day for the next 3 days, two of the remaining flasks were harvested in the manner just described for determination of cell number. Only data on day three are presented. This method has previously been described by Schinazi, et al., “Effect of Combination of Acyclovir, and Vidarabine or its 5′-monophosphate on Herpes Simplex Viruses in Cell Culture and in Mice,” Antimicrob. Agents Chemother. 22, 499-507 (1982)). Median-Effect Method: EC50 and IC50 values were obtained by analysis of the data using the median-effect equation (Chou, T., et al., “Quantitative Analysis of Dose-Effect Relationships: The Combined Effects of Multiple Drugs or Enzyme Inhibitors,” Adv. Enz. Regul. 22, 27-55 (1984).

[10] = CEM cell proliferation (cytotoxicity) assay; format: cell-based; conditions: human
Protocol: as §6

## CN(C)c1ccc2nc3ccc(N(C)C)cc3[s+]c2c1.[Cl-] [MB, 3,7-Bis(dimethylamino)phenothiazin-5-ium chloride]
[1]
  formation of hydroxylated derivative from nucleosides: Only deoxyguanosine reacted to form the hydroxylated derivative
RNA virus R17 [2]; 0.05 μM methylene blue
  light exposure inactivating infectivity 50%: 45 s
RNA virus R17 [2]; MB 0.02 uM, light 5′ yes
  pfu/ml: 5.04 × 10^10 pfu/ml
RNA virus R17 [2]; MB 0.04 uM, light 5′ yes
  pfu/ml: 1.11 × 10^10 pfu/ml
RNA virus R17 [2]; MB 0.05 uM and light
  t½ of R17 inactivation: 48 to 60 s
RNA virus R17 [2]; light 0.1 min
  PFU: 3.3 × 10^9/ml PFU/ml
RNA virus R17 [2]; light 0.5 min
  PFU: 5.0 × 10^9/ml PFU/ml
RNA virus R17 [2]; light 2.5 min
  PFU: 9.1 × 10^7/ml PFU/ml
RNA virus R17 [2]; light 5.0 min
  PFU: 6.93 × 10^7/ml PFU/ml
RNA virus R17 [2]; light exposure none
  PFU: 2.76 × 10^9/ml PFU/ml
RNA virus R17 [2]; MB 0.2 uM, light 5′ yes
  pfu/ml: 3.25 × 10^5 pfu/ml
RNA virus R17 [2]; MB 2.0 uM, light 5′ yes
  pfu/ml: 3.00 × 10^3 pfu/ml
RNA virus R17 [2]; MB 2.0 uM, light no
  pfu/ml: 4.80 × 10^10 pfu/ml
RNA virus R17 [2]; MB 20.0 uM, light 5′ yes
  pfu/ml: 4.20 × 10^4 pfu/ml
RNA virus R17 [2]; MB 20.0 uM, light no
  pfu/ml: 3.00 × 10^9 pfu/ml
[3]; Dark
  IC50: 10 µM
[3]; Light
  IC50: 9.2 µM
[4]; Dark
  IC50: 105 µM
[4]; Light
  IC50: 125 µM
RNA virus R17 [5]; 0.02 μM methylene blue plus light for 15 min
  inactivation of R17 (ability to form plaques): causes inactivation of R17
RNA virus R17 [5]; MB 0.05 uM, light 1.0 min
  PFU: 1.0 × 10^9/ml PFU/ml
[6]
  crossing of the blood-milk barrier: crosses the blood-milk barrier easily
[7]; American Hospital Formulary Service
  absorption from the GI tract: absorbed well from the GI tract
[7]; mostly as leukomethylene blue
  excreted in urine and via the bile: about 75%
[8]; doses as high as 50 mg/kg
  methemoglobin production: minimal methemoglobin production
[8]; up to four weeks after a total dose of 30 mg/kg
  hematologic changes: no hematologic changes
[8]
  overall elimination rate constant: 0.0076 ± 0.016 min⁻¹

## Nc1nc2c(ncn2COCCO)c(=O)[nH]1 [ACV, Acyclovir]
[9]
  IC50 at 6 days: > 100 µM
Toxicity in Vero cells
  IC50 at 3 days: 1700 µM
[10]
  IC50 at 6 days: > 100 µM
